Measured values published in paper doi:10.1101/2025.03.31.646301v1, “Discovery of Tankyrase scaffolding inhibitor specifically targeting the ARC4 peptide binding domain” (biorxiv, 2025).
Read-outs that look alike come from different tables or passages of the source.

Key:
TNKS2 ARC4 [1] = target: T1, TNKS2 ARC4 (Homo sapiens, UniProt Q9H2K2); test: FRET displacement of YFP-REAGDGEE peptide from CFP-ARC; format: binding
T1 construct: ankyrin repeat cluster 4 domain; FRET: 6xHis-mCerulean (CFP) fusion; DSF, NMR, crystal: MBP and His tag cleaved by TEV, residues 487-649 printed for crystal; E. coli BL21(DE3)
T1 sequence (Q9H2K2 487-649): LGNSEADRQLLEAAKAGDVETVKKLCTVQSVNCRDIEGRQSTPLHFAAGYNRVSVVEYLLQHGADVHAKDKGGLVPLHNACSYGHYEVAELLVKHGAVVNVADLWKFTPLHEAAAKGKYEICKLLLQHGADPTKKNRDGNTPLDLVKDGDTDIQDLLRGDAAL

TNKS2 ARC4 [2] = target: T1, TNKS2 ARC4; parameters: DSF thermal shift of TNKS2 ARC4, stabilization over DMSO control; conditions: binder
From the text: Given the notable stabilization of the pyrrolone-based compounds from the Commercials Diversity collection, we decided to focus on their common scaffold for compound optimization. Pyrrolone is indeed a versatile moiety that is largely employed for the design of compounds with a variety of biological effects.[55] The nine primary hits were acquired from commercial suppliers, they underwent quality control, additional DSF validation and determination of potency through FRET-based IC50 measurements (Table 1). All the tested compounds include a benzodioxane moiety (R[1]), a [compound left out] group with substitutions in the para position (R[2]), and an R[3] group with an aliphatic character and a tertiary amine. […] In addition, all molecules, except for 7, have IC50 values below 100 µM. Among the nine molecules, 1 performed the best in terms of stabilization of TNKS2 ARC4 and potency. […] In the same position, the presence of a hydrophobic methyl group (3, 4), other halogen substituents (5) and alkoxy groups (6–9) is also tolerated, even if not optimal. […] A SAR investigation was conducted with purchased and synthesized analogues of 1 through FRET-based potency measurements and DSF assay with TNKS2 ARC4 (Table 2, Table S2). All the compounds commercially acquired underwent quality control. […] Changes to the length of the aliphatic chain at R[3] greatly impacts both potency and protein stabilization. […] The diethylamino-based substituent at R[3] […] Compounds 25 and 26 further indicate that the presence of tertiary amine at R[3] is not necessary to achieve binding. […] 5 Figure S2. DSF assay results for validation of primary hits identified in the EU-OPENSCREEN Commercials Diversity Library. (A) and (B) show DSF assay validation measurements of TNKS2 ARC4 with primary hits from the Commercial Diversity Library. Compounds are tested at 100 μM. They are named after their EU-OPENSCREEN identity codes and the identities are available for consultation on ECBD. 1,2 (A) and (B) show results from two independent experiments. For each experiment, each compound was tested with a single measurement, while controls (TNKS2 ARC4 with 100 μM optimized peptide, TNKS2 ARC4 with 100 μM DMSO) are studied in at least four replicates and errors are shown. Moreover, stabilization over the control (TNKS2 ARC4 with DMSO) is indicated (ΔTm °C). […] It was not possible to measure the melting curve of TNKS2 ARC4 in presence of EOS21552, EOS54043, EOS54043.

| SMILES | IC50 (TNKS2 ARC4 [1]) [µM] | ΔTm ± SD (°C) (TNKS2 ARC4 [2]) | IC50 (TNKS2 ARC4 [1]; pH 7, 100 nM CFP-ARC, 200 nM YFP-peptide, TBM pocket) [µM] |
| --- | --- | --- | --- |
| CCN(CC)CCCN1C(=O)C(O)=C(C(=O)c2ccc3c(c2)OCCO3)C1c1cccc(OC)c1 (stereo not drawn) [compound 12, 12] | 11 | 4.03 ± 0.39 | – |
| CCN(CC)CCCN1C(=O)C(O)=C(C(=O)c2ccc3ccccc3c2)C1c1ccc(O)cc1 (stereo not drawn) [S6] | > 1000 | -0.06 ± 0.04 | – |
| O=C(C1=C(O)C(=O)N(CCCN2CCOCC2)C1c1cccc(O)c1)c1ccc2c(c1)OCCO2 (stereo not drawn) [compound 18] | – | 2.25 ± 0.48 | – |
| CCN(CC)CCCN1C(=O)C(O)=C(C(=O)c2ccc3c(c2)CC(C)O3)C1c1ccc(O)cc1 (stereo not drawn) [compound 10, 10] | 31 | 2.67 ± 0.46 | – |
| Cc1ccc(C2C(C(=O)c3ccc4c(c3)OCCO4)=C(O)C(=O)N2CCCN(C)C)cc1 (stereo not drawn) [compound 3, 3] | 51 | 2.34 ± 0.30 | – |
| CCN(CC)CCCN1C(=O)C(O)=C(C(=O)c2ccc3c(c2)OCCO3)C1c1ccc(N(C)C)cc1 (stereo not drawn) [compound 19, 19] | 10 | – | – |
| CCN(CC)CCCN1C(=O)C(O)=C(C(=O)c2ccc3c(c2)OCCO3)C1c1ccc(N(C)C)cc1 (stereo not drawn) [compound 19] | – | 4.14 ± 0.12 | – |
| COc1cccc(C2C(C(=O)c3ccc4c(c3)OCCO4)=C(O)C(=O)N2CCCN2CCNCC2)c1 (stereo not drawn) [S1] | 250 | 0.69 ± 0.30 | – |
| CCOc1ccc(C2C(C(=O)c3ccc4c(c3)OCCO4)=C(O)C(=O)N2CCCN2CCOCC2)cc1 (stereo not drawn) [compound 7, 7] | 117 | 1.42 ± 0.16 | – |
| COCCCN1C(=O)C(O)=C(C(=O)c2ccc3c(c2)OCCO3)C1c1cccc(O)c1 (stereo not drawn) [compound 15, 15] | 368 | 0.78 ± 0.43 | – |
| CN(C)CCCN1C(=O)C(O)=C(C(=O)c2ccc3c(c2)OCCO3)C1c1cccc(O)c1 (stereo not drawn) [compound 16, 16] | 31 | – | – |
| O=C(C1=C(O)C(=O)N(CCCN2CCOCC2)C1c1cccc(O)c1)c1ccc2c(c1)OCCO2 (stereo not drawn) [compound 18, 18] | 85 | – | – |
| CCN(CC)CCCN1C(=O)C(O)=C(C(=O)c2ccc(OCc3ccc(C)cc3)cc2)C1c1ccc(O)cc1 (stereo not drawn) [compound 11, 11] | 552 | 0.07 ± 0.07 | – |
| CCN(CC)CCCN1C(=O)C(O)=C(C(=O)c2ccc(OC)c(OC)c2)C1c1cccc(O)c1 (stereo not drawn) [S11] | – | 0.08 ± 0.40 | – |
| CCN(CC)CCCN1C(=O)C(O)=C(C(=O)c2ccc3c(c2)OCCO3)C1c1ccc(F)cc1 (stereo not drawn) [compound 2, 2] | 32 | 2.38 ± 0.52 | – |
| CCN(CC)CCCCN1C(=O)C(O)=C(C(=O)c2ccc3c(c2)OCCO3)C1c1ccc(O)cc1 (stereo not drawn) [S12] | 74 | 1.97 ± 0.35 | – |
| CN(C)CCCN1C(=O)C(O)=C(C(=O)c2ccc3c(c2)OCCO3)C1c1ccc(Br)cc1 (stereo not drawn) [compound 5, 5] | 70 | 1.49 ± 0.16 | – |
| CCN(CC)CCCN1C(=O)C(O)=C(C(=O)c2ccc(OC)c(OC)c2)C1c1ccccc1 (stereo not drawn) [S10] | – | -0.28 ± 0.35 | – |
| CCCCOc1ccc(C2C(C(=O)c3ccc4c(c3)OCCO4)=C(O)C(=O)N2CCCN(C)C)cc1 (stereo not drawn) [compound 8, 8] | 69 | 1.65 ± 0.24 | – |
| CN(C)CCN1C(=O)C(O)=C(C(=O)c2ccc3c(c2)OCCO3)C1c1cccc(O)c1 (stereo not drawn) [compound 17] | – | 0.98 ± 0.32 | – |
| CCN(CC)CCCN1C(=O)C(O)=C(C(=O)c2ccc3c(c2)OCCO3)C1c1cccc(O)c1 (stereo not drawn) [compound 13, 13] | 24 | 4.82 ± 0.49 | – |
| CN(C)CCN1C(=O)C(O)=C(C(=O)c2ccc3c(c2)OCCO3)C1c1cccc(O)c1 (stereo not drawn) [compound 17, 17] | 274 | – | – |
| CN(C)CCCN1C(=O)C(O)=C(C(=O)c2ccc3c(c2)OCCO3)C1c1cccc(O)c1 (stereo not drawn) [compound 16] | – | 2.96 ± 0.36 | – |
| CCN(CC)CCN1C(=O)C(O)=C(C(=O)c2ccc3c(c2)OCCO3)C1c1cccc(O)c1 (stereo not drawn) [compound 14, 14] | 139 | 1.40 ± 0.36 | – |
| COc1cccc(C2C(C(=O)c3ccc4c(c3)OCCO4)=C(O)C(=O)N2CCCNC(=N)N)c1 (stereo not drawn) [S4] | 142 | 1.10 ± 0.12 | – |
| CCN(CC)CCCN1C(=O)C(O)=C(C(=O)c2ccc(OC)c(OC)c2)C1c1ccc(O)cc1 (stereo not drawn) [S7] | > 1000 | 0.04 ± 0.03 | – |
| CCN(CC)CCCN1C(=O)C(O)=C(C(=O)c2ccc3c(c2)OCCO3)C1c1ccc(N)cc1 (stereo not drawn) [S9] | 17 | 2.78 ± 0.18 | – |
| CCCCOc1ccc(C2C(C(=O)c3ccc4c(c3)OCCO4)=C(O)C(=O)N2CCCN2CCOCC2)cc1 (stereo not drawn) [compound 9, 9] | 81 | 1.40 ± 0.18 | – |
| CCN(CC)CCCN1C(=O)C(O)=C(C(=O)c2ccc3c(c2)OCCO3)C1c1ccc(C)cc1 (stereo not drawn) [compound 20, 20] | 78 | – | – |

Next, values leading:

| IC50 (TNKS2 ARC4 [1]) [µM] | ΔTm ± SD (°C) (TNKS2 ARC4 [2]) | IC50 (TNKS2 ARC4 [1]; pH 7, 100 nM CFP-ARC, 200 nM YFP-peptide, TBM pocket) [µM] | SMILES |
| --- | --- | --- | --- |
| – | 0.89 ± 0.33 | – | O=C(C1=C(O)C(=O)N(CCN2CCOCC2)C1c1ccccc1)c1ccc2c(c1)OCCO2 (stereo not drawn) [compound 23] |
| – | – | 411 | O=C(C1=C(O)C(=O)N(CCN2CCOCC2)C1c1ccccc1)c1ccc2c(c1)OCCO2 (stereo not drawn) [compound 23, 23] |
| 325 | – | – | O=C(C1=C(O)C(=O)N(Cc2ccncc2)C1c1ccccc1)c1ccc2c(c1)OCCO2 (stereo not drawn) [compound 22, 22] |
| – | 0.48 ± 0.27 | – | O=C(C1=C(O)C(=O)N(Cc2ccncc2)C1c1ccccc1)c1ccc2c(c1)OCCO2 (stereo not drawn) [compound 22] |
| 56 | – | – | CCN(CC)CCCN1C(=O)C(O)=C(C(=O)c2ccc3c(c2)OCCO3)C1c1ccncc1 (stereo not drawn) [compound 24, 24] |
| 36 | – | – | CCN(CC)CCCN1C(=O)C(O)=C(C(=O)c2ccc3c(c2)OCCO3)C1c1ccccc1 (stereo not drawn) [compound 21, 21] |
| – | 4.73 ± 0.29 | – | CCN(CC)CCCN1C(=O)C(O)=C(C(=O)c2ccc3c(c2)OCCO3)C1c1ccccc1 (stereo not drawn) [compound 21] |
| – | 0.76 ± 0.33 | – | O=C(C1=C(O)C(=O)N(Cc2ccccc2)C1c1ccc(O)cc1)c1ccc2c(c1)OCCO2 (stereo not drawn) [compound 26] |
| 30 | – | – | O=C(C1=C(O)C(=O)N(Cc2ccccc2)C1c1ccc(O)cc1)c1ccc2c(c1)OCCO2 (stereo not drawn) [compound 26, 26] |
| – | 2.75 ± 0.44 | – | CCN(CC)CCCN1C(=O)C(O)=C(C(=O)c2ccc3c(c2)OCCO3)C1c1ccncc1 (stereo not drawn) [compound 24] |
| – | 1.80 ± 0.26 | – | O=C(C1=C(O)C(=O)N(CCc2ccccc2)C1c1ccc(O)cc1)c1ccc2c(c1)OCCO2 (stereo not drawn) [compound 25] |
| – | 3.43 ± 0.66 | – | CCN(CC)CCCN1C(=O)C(O)=C(C(=O)c2ccc3c(c2)OCCO3)C1c1ccc(C)cc1 (stereo not drawn) [compound 20] |
| 56 | – | – | O=C(C1=C(O)C(=O)N(CCc2ccccc2)C1c1ccc(O)cc1)c1ccc2c(c1)OCCO2 (stereo not drawn) [compound 25, 25] |
